Measurements from PubChem BioAssay (NCI).
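Where inhibition never reached the appropriate level, the endpoint shown equals the highest concentration tested. Otherwise, values were interpolated linearly from a five-concentration, 48-hour dose response in 96-well plates. Here, GI50 denotes the concentration required for 50% inhibition of growth. At the TGI there is no net growth.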

Experiments:
Test in all cases: NCI-60 cell line screen, 48 h
U251 CNS = tested on: U251 CNS
T-47D breast = tested on: T-47D breast
HOP-62 NSCLC = tested on: HOP-62 NSCLC
UO-31 renal = tested on: UO-31 renal
HL-60(TB) leukemia = tested on: HL-60(TB) leukemia
RPMI-8226 leukemia = tested on: RPMI-8226 leukemia
MOLT-4 leukemia = tested on: MOLT-4 leukemia
SF-268 CNS = tested on: SF-268 CNS
ACHN renal = tested on: ACHN renal
EKVX NSCLC = tested on: EKVX NSCLC

SMILES	TGI (U251 CNS)	TGI (T-47D breast)	TGI (HOP-62 NSCLC)	TGI (UO-31 renal)	TGI (HL-60(TB) leukemia)	TGI (RPMI-8226 leukemia)	TGI (MOLT-4 leukemia)	TGI (SF-268 CNS)	TGI (ACHN renal)	TGI (EKVX NSCLC)	GI50 (ACHN renal)
O=C1C[C@H](c2ccccc2)C2(C(=O)c3ccccc3C2=O)[C@H](c2ccccc2)C1	> 100 µM	> 100 µM	96 µM	> 100 µM	> 100 µM	> 100 µM	> 100 µM	–	–	–	–
O=C(O)/C=C/C(=O)O	> 100 µM	> 100 µM	> 100 µM	> 100 µM	> 100 µM	> 100 µM	> 100 µM	> 100 µM	> 100 µM	> 100 µM	–
CC(=O)NC1=CC(=O)c2cc(C)cc(O)c2C1=O	36.4 µM	35 µM	35.2 µM	20 µM	5.24 µM	12.2 µM	24.2 µM	22.6 µM	23 µM	31.7 µM	–
C#CCOC(=O)C(N)CCCN=C(N)N (stereo unspecified)	> 100 µM	> 100 µM	> 100 µM	> 100 µM	> 100 µM	> 100 µM	> 100 µM	> 100 µM	> 100 µM	> 100 µM	–
CC(C)C(C/C=C1\CC(CO)(COC(=O)CC(C(C)C)C(C)C)OC1=O)C(C)C (stereo unspecified)	29.4 µM	30.7 µM	20.5 µM	20 µM	18.8 µM	–	21.4 µM	27.6 µM	22.5 µM	23.5 µM	–
CC(C)(C)OC(=O)NCC(=O)N1CCCN(C(=O)CNC(=O)OC(C)(C)C)CC1	> 100 µM	> 100 µM	> 100 µM	> 100 µM	> 100 µM	> 100 µM	> 100 µM	> 100 µM	> 100 µM	> 100 µM	–
Nc1nc2cc(CNc3ccc(C(=O)NC(CCC(=O)O)C(=O)O)cc3)ccc2nc1-c1ccccc1 (stereo unspecified)	> 10 µM	> 10 µM	> 10 µM	> 10 µM	> 10 µM	> 10 µM	> 10 µM	> 10 µM	> 10 µM	> 10 µM	–
COc1ccc(/C=N/n2c(Cc3ccc(Cl)cc3)n[nH]c2=O)c(OC)c1	> 100 µM	> 100 µM	> 100 µM	> 100 µM	–	> 100 µM	> 100 µM	32 µM	> 100 µM	> 100 µM	–
Cc1cc([N+](=O)[O-])ccc1N=NC(=O)NNc1ccc([N+](=O)[O-])cc1C	32.9 µM	28.9 µM	29 µM	25.2 µM	40.9 µM	55.2 µM	37.5 µM	40.9 µM	29.4 µM	–	–
CN(C)CCOC1(CC2CCCCC2)CCC(C(C)(C)C)CC1 (stereo unspecified)	13.2 µM	13.6 µM	11.2 µM	15.6 µM	7.35 µM	4.9 µM	7.67 µM	25.4 µM	20 µM	22 µM	–
CC(C)(C)c1cc(C2COC(=O)COCC(=O)OCCOCCOCCO2)cc(C(C)(C)C)c1O (stereo unspecified)	> 100 µM	> 100 µM	> 100 µM	35.7 µM	> 31.6 µM	> 100 µM	> 100 µM	41.3 µM	37.2 µM	> 100 µM	–
CCOC(=O)C(NCc1cccc(C(F)(F)F)c1)(NC(=O)c1ccccc1)C(F)(F)F (stereo unspecified)	> 100 µM	80 µM	> 100 µM	79.4 µM	> 100 µM	94.6 µM	> 100 µM	> 100 µM	79.5 µM	83.9 µM	–
Cc1cccc2c1C/C(=C\c1cccc(C)c1C(=O)O)C2=O	> 100 µM	> 100 µM	> 100 µM	> 100 µM	> 100 µM	> 100 µM	> 100 µM	> 100 µM	> 100 µM	> 100 µM	–
CC(C)(NC1=NCCO1)c1ccccc1	> 100 µM	> 100 µM	> 100 µM	> 100 µM	–	> 100 µM	> 100 µM	> 100 µM	> 100 µM	> 100 µM	–
O=c1[nH]c2ccccc2c2oc(-c3ccccc3)nc12	60.8 µM	> 100 µM	39 µM	> 100 µM	–	70 µM	87.8 µM	71.3 µM	> 100 µM	> 100 µM	–
CN(C)CCn1c(=O)c2ccc3c4c(nn3CCN(C)C)c3ccccc3n(c1=O)c24	1.43 µM	3.74 µM	1.88 µM	2.42 µM	2.75 µM	4.07 µM	0.0581 µM	5.12 µM	0.765 µM	0.112 µM	–
CCOc1cc(C2SCC(=O)N2c2nc3cc4sc(N5C(=O)CSC5c5ccc(O)c(OCC)c5)nc4cc3s2)ccc1O (stereo unspecified)	> 100 µM	> 100 µM	> 100 µM	> 100 µM	> 100 µM	> 100 µM	> 100 µM	> 100 µM	> 100 µM	> 100 µM	–
COC1/C=C/C(C)C(C(C)C(OC)C(C)CCC(=O)C(C)C(C/C=C/N(C)C=O)OC)OC(=O)/C=C/C=C(\C)CC(OC)C(OC)C2=CC(=O)O[C@@H](C(C)C(OC)CC(OC)/C=C/C(C)C(O)C1)[C@H]2O (stereo partly specified)	0.301 µM	0.538 µM	0.218 µM	0.267 µM	0.43 µM	–	> 100 µM	0.407 µM	0.594 µM	0.441 µM	–
CC1(C)[C@@H]2C[C@H]1C(Cc1cccc(C[C@H]3c4cc(-c5ccccn5)ncc4[C@H]4C[C@@H]3C4(C)C)c1)c1cc(-c3ccccn3)ncc12 (stereo partly specified)	16.3 µM	> 100 µM	15.5 µM	6.15 µM	–	32.1 µM	1.91 µM	> 100 µM	> 100 µM	> 46.8 µM	0.605 µM
CCOC(=O)C(=Cn1c(=S)[nH]c2ccc([N+](=O)[O-])cc21)C(=O)OCC	> 100 µM	> 100 µM	> 100 µM	> 100 µM	> 100 µM	> 100 µM	> 100 µM	> 100 µM	> 100 µM	> 100 µM	–
C[C@H](CCC1=NCCN1)[C@H]1CC[C@H]2[C@@H]3CC[C@@H]4C[C@H](O)CC[C@]4(C)[C@H]3C[C@H](O)[C@]12C	23.7 µM	30.6 µM	28.9 µM	52.6 µM	36 µM	30 µM	16.1 µM	20.5 µM	30.5 µM	34.4 µM	–
